Values of other authors in patent US9066953B2, “Methods for increasing endurance and fat metabolism in humans” (Quality IP Holdings, LLC, priority 2012, dated 2015).

What was measured:
hGH = settings: for effect on hGH: other amino acids, literature
GH = settings: subcutaneous injection of 0.06 IU, GH deficient subjects

| Molecule | effect on hGH (hGH) | other results |
| --- | --- | --- |
| N=C(N)NCCC[C@H](N)C(=O)O [arginine] |  | elevation of serum hGH levels (hGH; 30 g intravenous, in males): 8.6 fold; increase of hGH levels (hGH; intravenous infusion of 183 mg/kg body weight in females): > 20 fold |
| NCCCC[C@H](N)C(=O)O [lysine] | marked increases in hGH |  |
| NCCC[C@H](N)C(=O)O [ornithine] | marked increases in hGH |  |
| N[C@@H](Cc1c[nH]cn1)C(=O)O [histidine] | marked increases in hGH |  |
| CSCC[C@H](N)C(=O)O [methionine] | marked increases in hGH |  |
| HGH: injected human growth hormone used in the treatment of GH deficient subjects |  | mean levels of GH reached (GH): 0.4 ng/mL |
| N[C@@H](Cc1ccccc1)C(=O)O [phenylalanine] | marked increases in hGH |  |
